The source of these data is patent US20080096951A1 (SB Pharmo Puerto Rico Inc., priority 2002, published 2008).

One series is described as follows: physchem. The note with it: 25 °C, water, thermodynamic from solid. The method, then:
Glass vials containing water and excess amount of carvedilol salts were shaken by a mechanical shaker at ambient conditions. Aliquots were taken out at various time-point, filtered through 0.45 μm Acrodisc GHP filter. The pH of the filtered solutions was measured and suitable dilution was performed prior to UV-Vis analysis of carvedilol concentration.

For series [1] the following is noted: cited from earlier work.

The solubility is the dissolved amount per volume that the medium holds.

In brackets after ≈: the same amount, converted by molar mass. Read-outs that look alike come from different tables or passages of the source.

In “physchem”, `COc1ccccc1OCCNCC(O)COc1cccc2[nH]c3ccccc3c12` (racemic) [Carvedilol Free Base] had a solubility at 1 h of 9.8 µg/mL (≈ 24.1 µM) and a solubility at 24 h of 11.6 µg/mL (≈ 28.5 µM). Further, the solubility in series [1] (above pH 9.0) is less than 1 µg/mL. In addition, the saturation solubility in series [1] (pH 5, room temperature) is approximately 100 µg/mL. The saturation solubility in series [1] (pH 7, room temperature) is approximately 23 µg/mL.
